Measurements taken from patent US12357624B2, “Low dose pridopidine for Parkinson's Disease and other diseases associated with parkinsonism” (PRILENIA NEUROTHERAPEUTICS LTD., priority 2019, dated 2025).
Read-outs that look alike come from different tables or passages of the source.

Experiments:
[1] = tested on: TH-positive neurons in the substantia nigra compacta; details: 35 days
Protocol: (§1) Mice allocated to immunohistochemistry were perfusion-fixed on the day after the last rug/saline administration (interval of approx. 20 h from the last injection). Animals were deeply anesthetized with sodium pentobarbital (240 mg/kg, i.p.) and transcardially perfused with 0.9% saline solution, followed by ice-cold buffered 4% paraformaldehyde (pH 7.4). […] Coronal sections of 30 (1 m thickness were cut on a sliding microtome and stored at −20° C. in a nonfreezing solution (30% ethylene glycol and 30% glycerol in 0.1 M phosphate buffer).
(§2) Immunohistochemistry and quantitative analyses were performed according to established protocols [Francardo V, Bez F, Wieloch T, Nissbrandt H, Ruscher K, Cenci 33. MA. Neurobiology of Disease. […] Experimental Eye Research. […] (rabbit anti-TH antiserum from Pel-Freez, Rogers, AR, 1:1000) and Cluster of Differentiation 68 (CD68) (rat anti-CD68 antiserum from AbD Serotec, Kidlington, Oxfordshire, UK; 1:1000). Quantitative analyses were performed by an experimentally blinded investigator using the following methods.
The number of TH-positive cell bodies in the substantia nigra compacta (SNc) was determined using unbiased stereology according to the optical fractionator method as in [West M J. Stereological methods for estimating the total number of neurons and synapses: issues of precision and bias. Trends in Neurosciences.
Analysis was performed using a Nikon 80i microscope with an x-y motorized stage controlled by the NewCAST software (Visiopharm). The sampling fraction was chosen so as to count at least 100 neurons per side per animal following an established protocol [Francardo V, Recchia A, Popovic N, Andersson D, Nissbrandt H, Cenci M A. Impact of the lesion procedure on the profiles of motor impairment and molecular responsiveness to L-DOPA in the 6-hydroxydopamine mouse model of Parkinson's disease. Neurobiology of Disease. […] Trends in Neurosciences.

[2] = tested on: TH-immunoreactive fibers in the lateral striatum; details: chronic
Protocol: as §1, §2
Results were expressed as the total number of TH-immunopositive pixels per sample area (averaged across areas). […] The high-magnification analysis of TH fibers on random sample areas was complemented by optical density (O.D.) measurements of TH immunostaining across the entire dorsolateral and ventro-lateral striatum. […]

[3] = tested on: CD68-immunopositive microglial cells; details: 1 mg/kg
Protocol: as §2
The European Journal of Neuroscience. […] Seminars in Immunopathology.

[4] = tested on: GDNF, BDNF, phosphorylated ERK1/2; details: 0.3 mg/kg, 35 days
Protocol: Animals prepared for Western blot analysis were euthanized by cervical dislocation; their brains were rapidly extracted and frozen on crushed dry ice. Tissue samples were dissected out in a cryostat chamber (−14° C.). […] The striatum was dissected out using a scalpel blade. Tissue samples from the substantia nigra were taken with a tissue puncher of 2 mm diameter spanning across rostrocaudal levels −2.70 to −3.80 relative to the bregma. The samples were kept frozen until further analysis.
Tissue homogenates were prepared in cell lysis buffer (20 mmol/LTris (pH 7.5), 150 mmol/L NaCl, 1 mmol/L EDTA, 1 mmol/L EGTA, 1% Triton X-100, 2.5 mmol/L sodium pyrophosphate, 1 mmol/L |3-glycerolphosphate, 1 mmol/L Na3VO4, […] leupeptin, and 1 mmol/L phenylmethylsulfonyl fluoride). Twenty micrograms of protein was separated on a 10% SDS polyacrylamide gel. […] Thereafter, membranes were incubated overnight at 4° C. using one of the following primary antibodies: rabbit polyclonal anti-GDNF (Santa Cruz Biotechnology, Inc., Santa Cruz, CA; 1:1000) and monoclonal anti-BDNF (Santa Cruz Biotechnology, Inc., 1:1000); rabbit polyclonal antibodies against Thr202/Tyr204-phosphorylated ERK1/2 (p44/42-MAPK; Cell Signaling Technology Inc., Danvers, MA, 1:2000). Following appropriate washing steps, membranes were incubated with HRP-linked secondary antibodies (Sigma-Aldrich, Deisenhofen, Germany; 1:15000). Signals were visualized using a chemiluminescence kit (Merck Millipore, Watford, Hertfordshire, UK), and images were acquired using a CCD camera (LAS1000 system, Fuji Films, Tokyo, Japan). Optical density was measured on specific immunoreactive bands using NIH Image J software. Membranes were then stripped and reprobed with |-actin antibodies (Sigma-Aldrich, 1:50,000). The optical density of specific bands was then normalized to the |-actin band in the same lane.

[5] = tested on: WT and YAC128 neurons; details: 24 h treatment; after oligomycin plus FCCP
Protocol: Mitochondrial function was assayed by measuring the levels of the fluorescent probe MitoPY1, which detects H2O2 levels in mitochondria. Mitochondrial membrane potential (MMP) was assessed in cortical and striatal neurons using the positively changed fluorescent probe TMRM (tetramethylrhodamine methyl ester). […] Under these conditions, retention of TMRM by mitochondria was studied to estimate changes in Dym. […] TMRM release was calculated based in the differences in fluorescence before and after addition of oligomycin/FCCP.

[6] = tested on: 6-OHDA-lesioned S1R KO mice; details: 0.3 mg/kg, 5 weeks, vs saline
Protocol: The study was performed in male C57B16J mice weighing approx. 25 g and having an age of 8 to 9 weeks at the beginning of the experiments. A total of 65 wild-type mice and 52 S1R knockout (KO) mice were used. S1R knockout mice and wild-type littermates (both genders) were bred on a C57BL6J background. Our S1R KO line is derived from the well-characterized Sigmar1^Gt(OST422756)Lex mouse strain distributed by the Mutant Mouse Resource Regional Centre (MMRRC) The mice were housed under a 12-h light/dark cycle with free access to food and water.
6-OHDA-HCl (Sigma-Aldrich AB, Stockholm, Sweden) was freshly dissolved in 0.02% ascorbate-saline at the concentration of 3.2 mg free base per milliliter. […] The solution was injected via a glass capillary (tip diameter−50 (1 m) at the rate of 0.5 (1 L/min, and the capillary was left in place for 2 mi after each injection.
The first injection was given immediately upon completion of lesion surgery. […] Full rotations (continuous turns of 360) were counted off-line by an experimentally blinded investigator. Data are expressed as the total number of net full turns ipsilateral to the lesion per test session.
The number of supporting wall contacts performed independently by the paw contralateral to the lesion was expressed as a percentage of all supporting wall contacts in each session. […]

[7] = biological target: S1R (Mus musculus, UniProt O55242); details: both doses of 0.3 and 1 mg/kg; judged plausible from Ki and free brain concentration
Sequence of S1R (O55242 whole entry): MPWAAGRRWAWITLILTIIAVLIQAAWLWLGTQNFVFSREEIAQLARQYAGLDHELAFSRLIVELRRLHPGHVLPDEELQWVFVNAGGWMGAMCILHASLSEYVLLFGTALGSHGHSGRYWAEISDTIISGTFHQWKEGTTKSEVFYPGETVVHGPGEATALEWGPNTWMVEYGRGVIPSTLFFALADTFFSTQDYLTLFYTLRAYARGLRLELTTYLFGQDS

[8] = biological target: Sigma-1 receptor (S1R) vs dopamine D2/D3Rs (Rattus norvegicus, UniProt Q9R0C9); details: rats; behaviorally relevant doses; cited from earlier work
Sequence of Sigma-1 receptor (S1R) vs dopamine D2/D3Rs (Q9R0C9 whole entry): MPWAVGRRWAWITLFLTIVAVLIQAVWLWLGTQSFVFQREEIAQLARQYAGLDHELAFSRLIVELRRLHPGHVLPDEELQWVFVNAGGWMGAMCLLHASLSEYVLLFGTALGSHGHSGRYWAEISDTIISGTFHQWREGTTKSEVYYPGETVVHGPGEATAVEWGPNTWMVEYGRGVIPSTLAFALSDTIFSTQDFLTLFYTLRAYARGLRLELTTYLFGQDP

[9] = tested on: wild-type motor neurons; details: 0.1 μM, locally applied; cited from earlier work

CCCN1CCC(c2cccc(S(C)(=O)=O)c2)CC1 [pridopidine, 4-[3-(methylsulfonyl)phenyl]-1-propyl-piperidine]
increase in TH-positive neurons relative to saline treatment ([1]; 0.3 mg/kg s.c. daily): ~55%
number of TH-positive neurons, SNc ipsilateral to the lesion ([1]; 0.3 mg/kg s.c. daily): 3034 cells
number of TH-positive neurons, SNc ipsilateral to the lesion ([1]; 1.0 mg/kg s.c. daily): ~1901 cells
protection of dopaminergic cell bodies in SNc ([1]; 1.0 mg/kg s.c. daily, vs saline): did not, however, confer significant protection of dopaminergic cell bodies in SNc
TH fiber profiles, increase in median values relative to saline ([2]; 0.3 mg/kg s.c. daily): about 15 fold
TH fiber profiles vs saline ([2]; 1.0 mg/kg s.c. daily): did not achieve statistical significance
number of CD68-immunopositive microglial cells ([3]; SNc): trend towards an effect in the SNc
number of CD68-immunopositive microglial cells ([3]; ventrolateral striatum): not in the ventrolateral striatum
striatal BDNF level vs saline ([4]; striatum): +80.8%
striatal GDNF level vs saline ([4]; striatum): +37.6%
striatal phosphorylated ERK1/2 vs saline ([4]; striatum): +71%
BDNF level in the SN vs saline ([4]; substantia nigra): +88.5%
GDNF level in the SN vs saline ([4]; substantia nigra): only BDNF levels showed a significant increase
nigral phosphorylated ERK1/2 vs saline ([4]; substantia nigra): reached significance only in the striatum
mitochondrial membrane potential (ΔΨm) [5]: increases mitochondrial membrane potential
spontaneous rotations and forelimb use asymmetry (cylinder test, stepping test) [6]: does not improve motor deficits
occupancy of the S1R at Cmax [7]: 100%
receptor occupancy, in vivo PET [8]: occupy the Sigma-1 receptor (S1R) rather than the dopamine D2/D3Rs
mitochondria transport velocity in axons [9]: accelerates mitochondria transport in axons
